For 1 compound, Ki results are on record in US6440948B1, “Thiophene A2A receptor agonists” (CV Therapeutics, Inc., priority 1999, dated 2002).

This test has as its target T1, A2A receptor (Sus scrofa, UniProt K9IW67).
T1 construct: from tissue; host or cells: pig striatum membranes
The experiment in a line: affinity for the A2A receptor in a pig striatum membrane prep (displacement of tritiated ZM 241385). The test is classed as binding. To be noted: pig striatal membranes, 2 nM tritiated antagonist ZM 241385, 23° C. for 2h, greater than 5 point curve. On the procedure: Compounds of this invention were assayed to determine their affinity for the A2A receptor in a pig striatum membrane prep. Briefly, 0.2 mg of pig striatal membranes were treated with adenosine deaminase (2 U/mL) and 50 mM Tris buffer (pH=7,4) followed by mixing. To the pig membranes was added […] of serially diluted DMSO stock solution of the compounds of this invention at concentrations ranging from 10 nM to 100 μM or the control received […] of DMSO alone, then the: antagonist ZM 241385 in Tris buffer (50 mM, pH of 7.4) was added to achieve a final concentration of 2 nM . After incubation at 23° C. for 2h, then the solutions were filtered using a membrane harvester using multiple washing of the membranes (3x). The filter disks were counted in scintillation cocktail to determine the amount of displacement of tritiated ZM displaced by the compounds of this invention. Greater than a 5 point curve was used to generate Ki's. Compound 13 has a Ki between 1,000 and 10,000 nM.

T1 sequence (K9IW67 1-409): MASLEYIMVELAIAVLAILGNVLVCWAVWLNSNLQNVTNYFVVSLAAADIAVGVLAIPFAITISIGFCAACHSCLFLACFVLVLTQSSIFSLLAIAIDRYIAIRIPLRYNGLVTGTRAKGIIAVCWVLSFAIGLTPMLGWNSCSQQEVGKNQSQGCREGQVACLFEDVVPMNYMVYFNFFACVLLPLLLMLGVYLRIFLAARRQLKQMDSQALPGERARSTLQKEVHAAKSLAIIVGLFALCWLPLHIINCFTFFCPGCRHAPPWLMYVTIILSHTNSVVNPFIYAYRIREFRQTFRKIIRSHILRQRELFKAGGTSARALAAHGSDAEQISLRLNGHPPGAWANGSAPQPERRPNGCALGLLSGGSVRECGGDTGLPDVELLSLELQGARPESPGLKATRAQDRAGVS

For orientation: Ki means a dissociation constant, usually derived from enzyme kinetics or from competition with a known ligand. A low value points to tighter binding. `Cc1ccc(-c2nc(N)c3ncn([C@@H]4O[C@H](CO)[C@@H](O)[C@H]4O)c3n2)s1` [Compound 13, (4S,2R,3R,5R)-2-[6-Amino-2-(5-methyl(2-thienyl))purin-9-yl]-5-(hydroxymethyl)oxolane-3,4-diol] displayed an inhibition constant (Ki) of 1 to 10 µM.
